Patent US20100035867A1 (priority 2006, published 2010)
pIC50: −log10 of the molar value.

Tests used:
[1] = target: guanylyl cyclase type C (GC-C) (Homo sapiens, UniProt P25092); assay: STa-induced activation of GC-C in T84 cells (cyclic GMP accumulation, ELISA); format: cell-based; set-up: endogenous in cells; host or cells: T84 cells
guanylyl cyclase type C = guanylyl cyclase type C (Homo sapiens, UniProt P25092); settings: literature comparator; read-out: potency (IC50); cited from earlier work
Chain of guanylyl cyclase type C (P25092 24-1073): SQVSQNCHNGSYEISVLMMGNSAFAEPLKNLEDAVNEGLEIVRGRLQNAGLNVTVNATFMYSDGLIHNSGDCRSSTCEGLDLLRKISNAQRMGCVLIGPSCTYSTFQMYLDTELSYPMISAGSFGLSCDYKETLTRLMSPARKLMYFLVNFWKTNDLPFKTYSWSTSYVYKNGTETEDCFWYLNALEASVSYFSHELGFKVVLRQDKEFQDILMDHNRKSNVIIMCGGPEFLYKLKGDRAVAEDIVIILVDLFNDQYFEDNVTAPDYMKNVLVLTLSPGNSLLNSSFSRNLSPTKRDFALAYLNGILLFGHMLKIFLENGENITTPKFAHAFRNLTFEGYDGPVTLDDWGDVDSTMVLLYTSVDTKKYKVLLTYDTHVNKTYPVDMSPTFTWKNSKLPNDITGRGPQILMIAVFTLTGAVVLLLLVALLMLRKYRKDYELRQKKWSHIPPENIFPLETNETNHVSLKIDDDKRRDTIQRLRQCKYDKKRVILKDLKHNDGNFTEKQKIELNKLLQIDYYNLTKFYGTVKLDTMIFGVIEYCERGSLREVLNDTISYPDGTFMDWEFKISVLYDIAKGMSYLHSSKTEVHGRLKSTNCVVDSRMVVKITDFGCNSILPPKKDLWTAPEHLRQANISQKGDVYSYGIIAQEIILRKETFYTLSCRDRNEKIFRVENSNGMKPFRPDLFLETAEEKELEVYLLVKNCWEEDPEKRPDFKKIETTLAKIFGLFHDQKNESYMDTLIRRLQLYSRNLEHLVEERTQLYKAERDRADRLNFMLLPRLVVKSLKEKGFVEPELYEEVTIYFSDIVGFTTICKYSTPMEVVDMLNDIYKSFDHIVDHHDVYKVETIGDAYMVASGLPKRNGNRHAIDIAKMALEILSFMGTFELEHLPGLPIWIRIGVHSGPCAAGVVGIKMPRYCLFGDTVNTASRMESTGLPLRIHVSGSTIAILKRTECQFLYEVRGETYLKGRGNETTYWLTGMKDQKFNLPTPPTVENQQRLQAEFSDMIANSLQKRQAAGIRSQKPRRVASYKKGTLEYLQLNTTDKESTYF

[2] = system: adenylyl cyclase or guanylyl cyclase; format: cell-based; settings: read-out: typical IC50

Chain of guanylyl cyclase type C (GC-C) (P25092 24-1073): as above

| SMILES | inhibition of STa-induced activation of GC-C (FIG. 2) [1] | further results |
| --- | --- | --- |
| COc1cc(C2C3=C(Nc4c2c(=O)n(C)c(=O)n4C)c2ccccc2C3=O)ccc1O (centres unmarked) [IVb] | inhibition |  |
| Nc1nc(Cl)nc2c1ncn2[C@@H]1O[C@H](CO)[C@@H](O)[C@H]1O [2-chloroadenosine] |  | pIC50 (guanylyl cyclase type C): ~4.30 |
| Cn1c2c(c(=O)n(C)c1=O)C(c1cccc(Br)c1)C1C(=O)c3ccccc3C1=N2 (centres unmarked) [compound IIa, 5-(3-bromophenyl)-1,3-dimethyl-5,11-dihydro-1H-indeno[2′,1′:5,6]pyrido[2,3-d]pyrimidine-2,4,6-trione] | inhibition | pIC50 [2]: ~5.30; inhibition at 50 µM ([1]; 100 nM STa, 50 μM compound): 87.1%; level of cyclic GMP ([1]; 100 nM STa, 50 μM compound, vehicle 124±10, basal 6±2): 21±4 pmol/mg protein |
| CC(C)C(=O)N1C2=C(C(=O)c3ccccc32)C(c2ccc(Cl)cc2)c2c1n(C)c(=O)n(C)c2=O (centres unmarked) [VII] | inhibition |  |
| Cn1c2c(c(=O)n(C)c1=O)C(c1ccc(O)c(O)c1)C1=C(N2)c2ccccc2C1=O (centres unmarked) [IIIb] | inhibition |  |
| CCCC(=O)N1C2=C(C(=O)c3ccccc32)C(c2ccc(Cl)cc2)c2c1n(C)c(=O)n(C)c2=O (centres unmarked) [VI] | inhibition |  |
| CCOc1cc(C2C3=C(Nc4c2c(=O)n(C)c(=O)n4C)c2ccccc2C3=O)ccc1O (centres unmarked) [Vb] | inhibition |  |
| Cn1c2c(c(=O)n(C)c1=O)C(c1ccc(O)c(O)c1)C1C(=O)c3ccccc3C1=N2 (centres unmarked) [IIIa] | inhibition |  |
